Experimental data taken from PMC11477289, “Low-Basicity 5-HT6 Receptor Ligands from the Group of Cyclic Arylguanidine Derivatives and Their Antiproliferative Activity Evaluation” (International Journal of Molecular Sciences, 2024).
Read-outs that look alike come from different tables or passages of the source.

Columns and labels:
human 5-HT6 = molecular target: T1, human 5-HT6 (Homo sapiens, UniProt P50406); assay: [3H]-LSD radioligand binding assay, 5-HT6R; conditions: HEK293 expressing human 5-HT6R
T1 construct: expressed in transfected cells
T1 sequence (P50406 whole entry): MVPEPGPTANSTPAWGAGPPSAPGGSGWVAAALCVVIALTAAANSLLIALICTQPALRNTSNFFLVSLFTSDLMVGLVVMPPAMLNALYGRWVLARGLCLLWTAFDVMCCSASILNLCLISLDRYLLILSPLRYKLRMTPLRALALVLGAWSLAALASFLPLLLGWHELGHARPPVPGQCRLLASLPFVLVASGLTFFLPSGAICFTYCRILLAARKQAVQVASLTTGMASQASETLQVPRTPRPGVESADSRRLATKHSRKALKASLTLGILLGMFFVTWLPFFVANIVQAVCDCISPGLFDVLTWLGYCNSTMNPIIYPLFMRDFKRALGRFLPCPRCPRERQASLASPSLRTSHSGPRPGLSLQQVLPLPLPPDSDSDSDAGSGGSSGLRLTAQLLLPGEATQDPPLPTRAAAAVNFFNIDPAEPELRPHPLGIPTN
Experimental: Next, the ligands’ affinity for the 5-HT6 receptors was evaluated in the [^3H]-LSD radioligand binding assay. Experiments were performed in a stable HEK293 cell line expressing the human 5-HT6R.
The pellets were stored at −80 °C.

[1] = Affinity to phospholipids, IAM column (CHI IAM); assay type: physicochemical; conditions: IAM.PC.DD2 column, pH 7.4
[2] = Chromatographic hydrophobicity index on C18 column (lipophilicity); assay type: physicochemical

Row | Ki (human 5-HT6; read-out: 5-HT6 Ki) | CHI IAM [1] | melting point | CHI C18 pH 2.6 [2] | CHI C18 pH 7.4 [2] | CHI C18 pH 10.5 [2] | Molecule | Ki (human 5-HT6; 5-HT6 Ki)
1 | 2.16 ± 0.539 µM |  |  |  |  |  | Nc1nc2ccccc2n1S(=O)(=O)c1ccccc1 [PR 1, 1-(benzenesulfonyl)-1H-1,3-benzodiazol-2-amine] | 
2 | 0.148 ± 0.037 µM |  |  |  |  |  | Nc1nc2ccccc2n1S(=O)(=O)c1cccc2ccccc12 [PR 3, 1-(naphthalene-1-sulfonyl)-1H-1,3-benzodiazol-2-amine] | 
3 | 0.704 ± 0.176 µM |  |  |  |  |  | Nc1nc2cc(Cl)ccc2n1S(=O)(=O)c1cccc2ccccc12 [PR 6, 5-chloro-1-(naphthalene-1-sulfonyl)-1H-1,3-benzodiazol-2-amine] | 
4 | 2.95 ± 0.737 µM |  |  |  |  |  | Cc1c(S(=O)(=O)n2c(N)nc3ccccc32)sc2ccc(F)cc12 [PR 7, 1-[(5-fluoro-3-methyl-1-benzothiophen-2-yl)sulfonyl]-1H-1,3-benzodiazol-2-amine] | 
5 | 1.72 ± 0.429 µM |  |  |  |  |  | O=S(=O)(Nc1nc2ccccc2[nH]1)c1ccccc1 [PR 10, N -(1H-1,3-benzodiazol-2-yl)benzenesulfonamide] | 
6 | 2.44 ± 0.61 µM | 31.3 | 215 to 216 °C | 75.4 | 75.0 | 75.7 | O=S(=O)(NC1=Nc2ccccc2CN1)c1ccc(F)cc1 [PR 14, N-(3,4-dihydroquinazolin-2-yl)-4-fluorobenzene-1-sulfonamide] | 
7 | 5.1 ± 1.27 µM |  |  |  |  |  | O=S(=O)(NC1=Nc2ccccc2CN1)c1ccc(C(F)(F)F)cc1 [PR 16, N -(3,4-dihydroquinazolin-2-yl)-4-(trifluoromethyl)benzene-1-sulfonamide] | 
8 | 1.8 ± 0.451 µM | 33.5 | 217 to 222 °C | 76.4 | 76.3 | 86.6 | O=S(=O)(NC1=Nc2ccccc2CN1)c1ccccc1Cl [PR 18, 2-chloro-N-(3,4-dihydroquinazolin-2-yl)benzene-1-sulfonamide] | 
9 | 0.293 ± 0.073 µM |  |  |  |  |  | O=S(=O)(NC1=Nc2ccccc2CN1)c1cccc(Cl)c1Cl [PR 20, 2,3-dichloro-N-(3,4-dihydroquinazolin-2-yl)benzene-1-sulfonamide] | 
10 | 1.46 ± 0.364 µM |  | 168 to 174 °C |  |  |  | O=S(=O)(NC1=Nc2ccccc2CN1)c1c(Cl)cccc1Cl [PR 22, 2,6-dichloro-N-(3,4-dihydroquinazolin-2-yl)benzene-1-sulfonamide] | 
11 | 0.609 ± 0.152 µM | 42.6 | 208 to 211 °C | 95.2 | 94.6 | 97.7 | O=S(=O)(NC1=Nc2ccccc2CN1)c1cc(Cl)cc(Cl)c1 [PR 23, 3,5-dichloro-N-(3,4-dihydroquinazolin-2-yl)benzene-1-sulfonamide] | 
12 | 4.64 ± 1.16 µM | 35.3 | 157 to 165 °C | 82.8 | 81.0 | 83.0 | COc1ccc(Cl)cc1S(=O)(=O)NC1=Nc2ccccc2CN1 [PR 25, 5-chloro-N-(3,4-dihydroquinazolin-2-yl)-2-methoxybenzene-1-sulfonamide] | 
13 | 3.63 ± 0.909 µM |  |  |  |  |  | O=S(=O)(NC1=NCc2ccccc2N1)c1ccc2ccccc2c1 [PR 29, N -(3,4-dihydroquinazolin-2-yl)naphthalene-2-sulfonamide] | 
14 | 0.948 ± 0.212 µM |  |  |  |  |  | O=S(=O)(NC1=NCc2cc(Cl)ccc2N1)c1ccc2ccccc2c1 [PR 32, N -(6-chloro-3,4-dihydroquinazolin-2-yl)naphthalene-2-sulfonamide] | 
15 | 1.96 ± 0.434 µM | 44.9 | 220 to 222 °C | 98.3 | 96.4 | 99.9 | O=S(=O)(NC1=Nc2cc(Cl)ccc2CN1)c1ccc2ccccc2c1 [PR 33, N -(7-chloro-3,4-dihydroquinazolin-2-yl)naphthalene-2-sulfonamide] | 
16 | 0.702 ± 0.152 µM |  |  |  |  |  | CC1NC(NS(=O)(=O)c2ccc3ccccc3c2)=Nc2ccccc21 (centres unmarked) [PR 34, N -(4-methyl-3,4-dihydroquinazolin-2-yl)naphthalene-2-sulfonamide] | 
17 | 2.38 ± 0.593 µM |  |  |  |  |  | CC1NC(NS(=O)(=O)c2ccc3ccccc3c2)=Nc2ccc(Cl)cc21 (centres unmarked) [PR 35, N -(6-chloro-4-methyl-3,4-dihydroquinazolin-2-yl)naphthalene-2-sulfonamide] | 
18 | 2.22 ± 0.534 µM | 46.1 | 167 to 171 °C | 101.0 | 100.1 | 102.6 | CC1NC(NS(=O)(=O)c2ccc3ccccc3c2)=Nc2cc(Cl)ccc21 (centres unmarked) [PR 37, N -(7-chloro-4-methyl-3,4-dihydroquinazolin-2-yl)naphthalene-2-sulfonamide] | 
19 | 1.41 ± 0.331 µM |  | 175 to 180 °C |  |  |  | O=S(=O)(NC1=NCCc2ccccc2N1)c1ccc2ccccc2c1 [PR 38, N -(4,5-dihydro-1H-1,3-benzodiazepin-2-yl)naphthalene-2-sulfonamide] | 
20 | 0.133 ± 0.033 µM |  | 267 to 270 °C |  |  |  | O=S(=O)(NC1=Nc2cccc(Cl)c2CN1)c1c(Cl)ccc2ccccc12 [PR 52, 2-chloro-N-(5-chloro-3,4-dihydroquinazolin-2-yl)naphthalene-1-sulfonamide] | 
21 | 0.151 ± 0.035 µM |  |  |  |  |  | CN(C)c1cccc2c1CNC(NS(=O)(=O)c1cccc3ccccc13)=N2 [PR 63, N -[5-(dimethylamino)-3,4-dihydroquinazolin-2-yl]naphthalene-1-sulfonamide] | 
22 | 0.372 ± 0.093 µM |  | 144 to 153 °C |  |  |  | CC1NC(NS(=O)(=O)c2cccc3ccccc23)=Nc2ccc(Cl)cc21 (centres unmarked) [PR 69, N -(6-chloro-4-methyl-3,4-dihydroquinazolin-2-yl)naphthalene-1-sulfonamide] | 

Continued, molecule first:

Row | Molecule | Ki (human 5-HT6; read-out: 5-HT6 Ki) | CHI IAM [1] | melting point | CHI C18 pH 2.6 [2] | CHI C18 pH 7.4 [2] | CHI C18 pH 10.5 [2] | Ki (human 5-HT6; 5-HT6 Ki)
23 | N#Cc1cccc(S(=O)(=O)n2c(N)nc3ccccc32)c1 [PR 2, 3-[(2-amino-1H-1,3-benzodiazol-1-yl)sulfonyl]benzonitrile] | 49.2 ± 1.23 µM |  |  |  |  |  | 
24 | Nc1nc2ccccc2n1S(=O)(=O)c1ccc2ccccc2c1 [PR 4, 1-(naphthalene-2-sulfonyl)-1H-1,3-benzodiazol-2-amine] | 0.33 ± 0.083 µM |  |  |  |  |  | 
25 | Nc1nc2ccccc2n1S(=O)(=O)c1ccc2c(c1)CC(=O)N2 [PR 5, 5-[(2-amino-1H-1,3-benzodiazol-1-yl)sulfonyl]-2,3-dihydro-1H-indol-2-one] | 14.8 ± 3.69 µM |  |  |  |  |  | 
26 | Nc1nc2ccccc2n1S(=O)(=O)c1csc2ccccc12 [PR 8, 1-(1-benzothiophene-3-sulfonyl)-1H-1,3-benzodiazol-2-amine] |  | 40.3 | 192 to 195 °C | 89.8 | 90.3 | 91.0 | 0.133 ± 0.033 µM
27 | CN(c1nc2ccccc2n1C)S(=O)(=O)c1ccc2ccccc2c1 [PR 12, N -methyl-N-(1-methyl-1H-1,3-benzodiazol-2-yl)naphthalene-2-sulfonamide] | 41.9 ± 10.5 µM |  |  |  |  |  | 
28 | O=S(=O)(NC1=NCc2ccccc2N1)c1ccccc1 [PR 13, N-(3,4-dihydroquinazolin-2-yl)benzenesulfonamide] | 2.61 ± 0.651 µM |  |  |  |  |  | 
29 | O=S(=O)(NC1=Nc2ccccc2CN1)c1ccc(F)c(F)c1 [PR 15, N -(3,4-dihydroquinazolin-2-yl)-3,4-difluorobenzene-1-sulfonamide] | 5.27 ± 1.33 µM |  |  |  |  |  | 
30 | O=S(=O)(NC1=Nc2ccccc2CN1)c1ccc(Cl)c(Cl)c1 [PR 21, N -(3,4-dihydroquinazolin-2-yl)-3,4-dichlorobenzene-1-sulfonamide] | 1.02 ± 0.256 µM | 42.0 | 192 to 193 °C | 94.2 | 92.3 | 95.2 | 
31 | COc1cccc(S(=O)(=O)NC2=Nc3ccccc3CN2)c1 [PR 24, N -(3,4-dihydroquinazolin-2-yl)-3-methoxybenzene-1-sulfonamide] | 0.906 ± 0.227 µM | 31.4 | 108 to 114 °C | 74.1 | 74.5 | 75.5 | 
32 | O=S(=O)(NC1=Nc2ccccc2CN1)c1ccc(-c2ccccc2)cc1 [PR 26, N -(3,4-dihydroquinazolin-2-yl)-[1,1′-biphenyl]-4-sulfonamide] | 4.31 ± 1.08 µM |  |  |  |  |  | 
33 | O=S(=O)(NC1=Nc2ccc(Cl)cc2CN1)c1ccccc1 [PR 27, N -(6-chloro-3,4-dihydroquinazolin-2-yl)benzenesulfonamide] | 1.69 ± 0.422 µM |  |  |  |  |  | 
34 | CC1NC(NS(=O)(=O)c2ccccc2)=Nc2ccccc21 (centres unmarked) [PR 28, N -(4-methyl-3,4-dihydroquinazolin-2-yl)benzenesulfonamide] | 4.03 ± 1.01 µM |  |  |  |  |  | 
35 | O=S(=O)(NC1=Nc2cccc(Cl)c2CN1)c1ccc2ccccc2c1 [PR 31, N -(5-chloro-3,4-dihydroquinazolin-2-yl)naphthalene-2-sulfonamide] | 2.17 ± 0.538 µM | 46.0 | 202 to 204 °C | 99.7 | 97.4 | 100.6 | 
36 | O=S(=O)(NC1=Nc2ccccc2CN1)c1cccc2cccc(Cl)c12 [PR 45, 8-chloro-N-(3,4-dihydroquinazolin-2-yl)naphthalene-1-sulfonamide] | 0.736 ± 0.169 µM |  | 103 to 105 °C |  |  |  | 
37 | O=S(=O)(NC1=Nc2ccc(F)cc2CN1)c1cccc2ccccc12 [PR 55, N -(6-fluoro-3,4-dihydroquinazolin-2-yl)naphthalene-1-sulfonamide] | 1.79 ± 0.412 µM |  | 206 to 210 °C |  |  |  | 
38 | O=S(=O)(NC1=Nc2ccc(C(F)(F)F)cc2CN1)c1cccc2ccccc12 [PR 57, N -[6-(trifluoromethyl)-3,4-dihydroquinazolin-2-yl]naphthalene-1-sulfonamide] | 1.02 ± 0.235 µM |  | 215 to 222 °C |  |  |  | 
39 | O=S(=O)(NC1=Nc2ccc(N3CCOCC3)cc2CN1)c1cccc2ccccc12 [PR 65, N -[6-(morpholin-4-yl)-3,4-dihydroquinazolin-2-yl]naphthalene-1-sulfonamide] | 4.7 ± 1.08 µM |  | 278 to 281 °C |  |  |  | 
40 | N -(3,4-dihydroquinazolin-2-yl)naphthalene-2-sulfonamide [PR 39] | 4.27 ± 0.983 µM |  |  |  |  |  | 
